{"source": "patent US20180296630A1", "about": "“METHODS AND COMPOSITIONS FOR PREVENTING OR TREATING OPHTHALMIC CONDITIONS” (Stealth BioTherapeutics Corp, priority 2012, published 2018)", "key": {"GTM3 cells": {"system": "GTM3 cells", "assay": "MMP decline, sustained oxidative injury by H2O2, GTM3 cells", "type": "cell-based, human", "conditions": "then 200 μM H2O2 24 h", "method": "The effects of D-Arg-2′,6′-Dmt-Lys-Phe-NH2 on sustained oxidative injury of GTM and HTM cells was examined. Cells were pre-treated with 10^−6, 10^−7, 10^−8M of D-Arg-2′,6′-Dmt-Lys-Phe-NH2 for 1 h, and then incubated with 200 μM H2O2 for 24 h to investigate the protective effect of D-Arg-2′,6′-Dmt-Lys-Phe-NH2 in sustained oxidative stress."}, "CNV mouse model": {"system": "CNV mouse model", "assay": "Laser-induced choroidal neovascularization (CNV) mouse model", "type": "in vivo, C57BL/6 male mice", "conditions": "one week after laser", "source_text": "CNV were induced in the eye with laser burns. Methods useful in the present studies have been described by Reich, Mol Vis 2003; 9:210-216.\nBriefly, five to six-week-old C57BL/6 male mice were anesthetized with chloral hydrate and the pupils were dilated with tropicamide. With a coverslip used as a contact lens, four laser spots (532 nm, 260 mw, 0.01 s, 50 μm; Novus Spectra, Lumenis, USA) were applied to the fundus in a circle around the optic disc in the right eye. Daily intraperitoneal injections of 1 mg/kg, 9 mg/kg D-Arg-2′,6′-Dmt-Lys-Phe-NH2 (D-Arg-2′,6′-Dmt-Lys-Phe-NH2) or vehicle were started the day prior to laser photocoagulation.\nAfter one week, mice were deeply anaesthetized and perfused through the left ventricle with 1 ml (50 mg/ml) of PB S-buffered fluorescein-dextran. Eyes were enucleated and fixed in 4% paraformaldehyde for 2 h. The eyes were sectioned at the equator, and the anterior half and retina were removed. The posterior eye segment containing the sclera and choroid was dissected into quarters by four to five radial cuts and mounted on a slide. All flatmounts were examined by a fluorescence microscope (AxioCam MRC; Carl Zeiss). […]\nThere were 48 locations of neovascularization in each group. The area of neovascularization was calculated using IMAGE-PROPLUS6.0 software. […]"}, "HTM cells": {"system": "HTM cells", "assay": "Intracellular ROS production, acute H2O2 injury, FACS, HTM cells", "type": "cell-based, human", "conditions": "n=4", "source_text": "The percentage of intracellular ROS production compared to GTM control in GTM H2O2, D-Arg-2′,6′-Dmt-Lys-Phe-NH2 10^−6M, D-Arg-2′,6′-Dmt-Lys-Phe-NH2 10^−7M, D-Arg-2′,6′-Dmt-Lys-Phe-NH2 10^−8M groups were 146.0±2.27%, 84.5±8.75%, 102.0±5.69%, 133.0±5.17% respectively (n=3); the HTM groups were 153.0±3.46%, 79±2.39%, 91.8±3.49%, 129.0±8.24% respectively (n=4). P<0.001 GTM and HTM H2O2 Group compared to control; *** means P<0.001 compared to GTM H2O2 group; ▴ ▴ ▴ Means P<0.001 compared to HTM H2O2 group; ▴ ▴ means P<0.01 compared to HTM H2O2 group."}}}
{"substance": "D-Arg-2′,6′-Dmt-Lys-Phe-NH2", "values": [{"measurement": "MMP Decline", "setting": "GTM3 cells; 0.01 μM pre-treatment 1 h", "result": "−31.33 ± 1.20", "unit": "%"}, {"measurement": "MMP Decline", "setting": "GTM3 cells; 0.1 μM pre-treatment 1 h", "result": "−29.33 ± 2.19", "unit": "%"}, {"measurement": "MMP Decline", "setting": "GTM3 cells; 1 μM pre-treatment 1 h", "result": "−24.33 ± 4.18", "unit": "%"}, {"measurement": "area of neovascularization", "setting": "CNV mouse model; 1 mg/kg daily intraperitoneal", "result": "0.0068±0.0025"}, {"measurement": "area of neovascularization", "setting": "CNV mouse model; 9 mg/kg daily intraperitoneal", "result": "0.0067±0"}, {"measurement": "percentage of intracellular ROS production compared to control", "setting": "HTM cells; 10^−6M", "result": "79±2.39", "unit": "%"}, {"measurement": "percentage of intracellular ROS production compared to control", "setting": "HTM cells; 10^−7M", "result": "91.8±3.49", "unit": "%"}, {"measurement": "percentage of intracellular ROS production compared to control", "setting": "HTM cells; 10^−8M", "result": "129.0±8.24", "unit": "%"}]}
